Data: patent publication US5093519A, “Vitamin D derivatives: therapeutic applications and applications to assays of metabolities of vitamin D” (priority 1988, dated 1992)
Like-named read-outs stand apart in the source and are kept apart here.

Columns and labels:
[1] = test system: intracellular receptor of vitamin D; settings: background knowledge; cited from earlier work
[2] = test system: vitamin D-binding protein (DBP); settings: background knowledge, cited from earlier work
HL 60 cells = test: Differentiation of HL 60 leukemic cells in vitro; assay type: cell-based; settings: in words
Source text: This is, in effect, directly confirmed in various biological tests (induction of the differentiation HL 60 leukemic cells, inhibition of lymphocyte proliferation, modification of the proliferation of cancer cells, calciotropic effect, and the like). FIGS. (3-4) illustrate the effect of different analogs on the differentiation of HL 60 leukemic cells.

[3] = molecular target: T1, intracellular receptor for vitamin D (Rattus norvegicus, UniProt P13053); test: Binding to the intracellular receptor for vitamin D, displacement of [^3 H]-1,25-(OH)2 -vitamin D3 (rat duodenum); settings: in words
T1 construct: from tissue; host or cells: rat duodenum
T1 sequence (P13053 1-423): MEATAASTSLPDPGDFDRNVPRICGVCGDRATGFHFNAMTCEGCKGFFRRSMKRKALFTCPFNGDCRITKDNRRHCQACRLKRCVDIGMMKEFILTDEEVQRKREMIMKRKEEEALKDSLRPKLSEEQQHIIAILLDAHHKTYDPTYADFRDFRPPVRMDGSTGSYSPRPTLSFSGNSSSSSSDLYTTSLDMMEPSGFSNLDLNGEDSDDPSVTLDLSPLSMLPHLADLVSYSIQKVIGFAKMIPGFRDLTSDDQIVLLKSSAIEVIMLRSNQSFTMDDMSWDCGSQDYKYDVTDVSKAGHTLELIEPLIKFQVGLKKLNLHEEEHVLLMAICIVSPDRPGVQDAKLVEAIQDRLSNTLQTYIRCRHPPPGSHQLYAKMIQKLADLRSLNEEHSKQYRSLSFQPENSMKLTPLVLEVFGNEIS
Source text: Binding of 1,25-(OH)2 -vitamin D and two C^11 -derivatives to the intracellular receptor for vitamin D, measured by displacement of the binding of the tracer ]^3 H]-1,25-(OH)2 -vitamin D3.
The affinity, however, is approximately 100- to 200-fold lower than that of 1,25-(OH)2 -vitamin D3. This experiment is reproducible with receptors of different origins (rat duodenum in the example illustrated, but also calf thymus, human lymphocytes, and the like).
(§1) Bibliographic References 21, 22 and 23 served as references for the methodology of the tests of binding to DBP and to the receptor, and of the test of inhibition of lymphocyte proliferation.

human lymphocytes = test: Inhibition of proliferation of PHA-stimulated human lymphocytes; assay type: cell-based; settings: for inhibition of lymphocyte proliferation (in words): compound alone; for antagonist effect in lymphocyte proliferation test: 10^-10 M derivative added to 1,25-(OH)2 -vitamin D3; for inhibition of lymphocyte proliferation, less active than 1,25-(OH)2 -vitamin D3: fold less active than 1,25-(OH)2 -vitamin D3
Source text: For example, if the proliferative response of human lymphocytes stimulated with PHA is 100 in the absence of vitamin D3, it is reduced to 66.5 in the presence of 10^-11 M 1,25-(OH)2 -vitamin D3 (Table 1). In the same test, the addition of 11-(2-hydroxyethyl)-1,25-(OH)2 -D3 induces no inhibition at 10^-10 M (102.6).
as §1

[4] = background knowledge, cited from earlier work
purified human DBP = molecular target: T2, purified human DBP (Homo sapiens, UniProt P02774); test: Binding to purified human DBP, displacement of [^3 H]-25-OH-vitamin D3; settings: in words; FIG. 1
T2 construct: displacement of [3H]-25-OH-vitamin D3
T2 sequence (P02774 17-474): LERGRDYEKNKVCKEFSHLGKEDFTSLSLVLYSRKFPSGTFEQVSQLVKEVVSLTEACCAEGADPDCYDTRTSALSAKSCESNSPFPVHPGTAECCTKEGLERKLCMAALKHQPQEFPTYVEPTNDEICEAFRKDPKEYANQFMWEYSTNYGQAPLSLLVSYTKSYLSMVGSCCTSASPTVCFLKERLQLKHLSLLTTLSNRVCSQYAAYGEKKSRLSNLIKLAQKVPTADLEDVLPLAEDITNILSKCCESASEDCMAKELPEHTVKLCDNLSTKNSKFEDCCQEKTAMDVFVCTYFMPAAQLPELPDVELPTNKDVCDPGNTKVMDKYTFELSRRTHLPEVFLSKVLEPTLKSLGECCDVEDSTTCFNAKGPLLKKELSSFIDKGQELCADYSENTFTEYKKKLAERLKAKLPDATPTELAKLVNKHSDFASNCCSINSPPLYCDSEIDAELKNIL
Source text: Binding to purified human DBP of 25-OH-vitamin D3, 1,25-(OH)2 -vitamin D3 and some C^11 -derivatives of these molecules, measured by displacement of the binding of the tracer [^3 H]-25-OH-vitamin D3.
This affinity is not modified with an 11-hydroxyethyl derivative. […] This property has been turned to good account for obtaining analogs which can be iodinated via their branch at C^11, and these derivatives have been used successfully, for example, for developing the first specific assay for 25-OH-vitamin D3 using an iodinated tracer.
as §1

C=C1CC[C@H](O)C/C1=C/C=C1\CCC[C@]2(C)[C@@H]([C@H](C)CCCC(C)(C)O)CC[C@@H]12 [25-OH-vitamin D3]
affinity for the intracellular receptor of vitamin D [1]: low affinity | affinity for DBP [2]: high affinity | biological activity in a test of differentiation of HL 60 cells (HL 60 cells; FIGS. 3-4): of low activity

C=C1/C(=C\C=C2/C[C@H](C)C[C@]3(C)[C@@H]([C@H](C)CCCC(C)(C)O)CC[C@@H]23)C[C@@H](O)C[C@@H]1O [compound 47, 1α,25-(OH)2-11α-methylvitamin D3]
biological activity in a test of differentiation of HL 60 cells (HL 60 cells; FIGS. 3-4, listed as 11α-methyl-1,25-(OH)2 -vitamin D3): strong activity, approaching that of 1,25-(OH)2 -vitamin D3 | biological activity in a test of differentiation of HL 60 cells (HL 60 cells; FIGS. 3-4, listed as methyl derivative): very active | binding to the vitamin D3 receptor ([3]; FIG. 2): affinity comparable to unsubstituted 1,25-(OH)2 -vitamin D3

C=C1CCC(O)CC1=CC=C1CC(CCO)CC2(C)C1CCC2C(C)CCCC(C)(C)O (centres unmarked) [compound 56, 11-(2-hydroxyethyl)-25-OH-vitamin D3]
biological activity in a test of differentiation of HL 60 cells (HL 60 cells; FIGS. 3-4): of low activity

C=C1/C(=C\C=C2/CCC[C@]3(C)[C@@H]([C@H](C)CCCC(C)(C)O)CC[C@@H]23)C[C@@H](O)C[C@@H]1O [1,25-(OH)2-vitamin D3]
lymphocyte proliferation (human lymphocytes; 1,25-(OH)2 -vitamin D3 10^-11 M alone, 100% in absence of vitamin D3, 1e-05 µM): 66.5% | lymphocyte proliferation (human lymphocytes; 1,25-(OH)2 -vitamin D3 10^-12 M alone, 100% in absence of vitamin D3, 1e-06 µM): 93.8% | inhibition of lymphocyte proliferation (in words) (human lymphocytes): marked inhibition of proliferation | affinity for the intracellular receptor of vitamin D [1]: high affinity | half-life [4]: short half-life | therapeutic index ([4]; listed as 1,25-(OH)2)-vitamin D): very narrow therapeutic index | therapeutic index ([4]; listed as 1,25-(OH)2 -Vitamin D): narrow | affinity for DBP [2]: lower affinity | affinity for DBP ([2]; listed as 1α,25-(OH)2 -vitamin D): low affinity | biological activity in a test of differentiation of HL 60 cells (HL 60 cells; FIGS. 3-4): active

C=C1CC[C@H](O)C/C1=C/C=C1\C[C@H](CCOC(=O)CCC(=O)O)C[C@]2(C)[C@@H]([C@H](C)CCCC(C)(C)O)CC[C@@H]12 [compound 57, 11-(2-HS-ethyl)-25-OH-vitamin D3]
binding to purified human DBP (purified human DBP): does not necessarily modify this affinity substantially

C=C1/C(=C\C=C2/C[C@H](CCO)C[C@]3(C)[C@@H]([C@H](C)CCCC(C)(C)O)CC[C@@H]23)C[C@@H](O)C[C@@H]1O [compound 49, 11α-(2-OH-ethyl)-1,25-(OH)2-vitamin D3]
antagonist effect in lymphocyte proliferation test (human lymphocytes; listed as 11-(2-hydroxyethyl)-1,25-(OH)2 -D3): antagonizes its inhibitory effect | antagonist effect in lymphocyte proliferation test (human lymphocytes; listed as 11-(OH-ethyl) derivative): behaves as a partial antagonist of vitamin D3 | lymphocyte proliferation (human lymphocytes; 11-(2-OH-Ethyl) derivative 10^-10 M + 1,25-(OH)2 -vitamin D3 10^-11 M, 0.0001 µM): 91.8% | lymphocyte proliferation (human lymphocytes; 11-(2-OH-Ethyl) derivative 10^-10 M + 1,25-(OH)2 -vitamin D3 10^-12 M, 0.0001 µM): 98.5% | activity at 0.0001 µM (human lymphocytes; Homo sapiens, Lymphocyte, 10^-10 M alone, response is 100 in the absence of vitamin D3, read-out: proliferative response of lymphocytes): 103% | inhibition of lymphocyte proliferation (in words) (human lymphocytes): no inhibition | inhibition of lymphocyte proliferation, less active than 1,25-(OH)2 -vitamin D3 (human lymphocytes): 100 fold | binding to purified human DBP (purified human DBP): not modified | biological activity in a test of differentiation of HL 60 cells (HL 60 cells; FIGS. 3-4): of low activity | binding to the vitamin D3 receptor ([3]; FIG. 2, listed as 11α-(hydroxyethyl)): bind the vitamin D3 receptor | binding to the vitamin D3 receptor ([3]; FIG. 2, listed as 11α-(hydroxyethyl)-1,25-(OH)2 -vitamin D3): comparable

C=C1/C(=C\C=C2/C[C@H](CCOC(=O)CCC(=O)O)C[C@]3(C)[C@@H]([C@H](C)CCCC(C)(C)O)CC[C@@H]23)C[C@@H](O)C[C@@H]1O [11β-(2-hemisuccinoyloxyethyl)]
binding to the vitamin D3 receptor ([3]; FIG. 2): bind the vitamin D3 receptor

C=C1/C(=C\C=C2/C[C@H](CCOC(=O)CCC(=O)O)C[C@]3(C)[C@@H]([C@H](C)CCCC(C)(C)O)CC[C@@H]23)C[C@@H](O)C[C@@H]1O [compound 50, 11α-(2-HS-ethyl)-1,25-(OH)2-vitamin D3]
inhibition of lymphocyte proliferation, less active than 1,25-(OH)2 -vitamin D3 (human lymphocytes): approximately 1000 fold | binding to the vitamin D3 receptor ([3]; FIG. 2, listed as 11α-(2-hemisuccinoyloxyethyl vitamin D3)): comparable

C=C1/C(=C\C=C2/C[C@H](c3ccccc3)C[C@]3(C)[C@@H]([C@H](C)CCCC(C)(C)O)CC[C@@H]23)C[C@@H](O)C[C@@H]1O [compound 48, 1α,25-(OH)2-11α-phenylvitamin D3]
biological activity in a test of differentiation of HL 60 cells (HL 60 cells; FIGS. 3-4, listed as 11α-phenyl-1,25-(OH)2 -vitamin D3): active | biological activity in a test of differentiation of HL 60 cells (HL 60 cells; FIGS. 3-4, listed as phenyl derivative): moderately active | binding to the vitamin D3 receptor ([3]; FIG. 2): binds the receptor better than the 11α-hydroxyethyl derivatives
